Source: patent publication US9771358B2, “Dihydropyrimidine compounds and their application in pharmaceuticals” (SUNSHINE LAKE PHARMA CO., LTD., priority 2014, dated 2017)
pEC50: −log10 of the molar value. Like-named read-outs stand apart in the source and are kept apart here.

Columns and labels:
[1] = Stability in liver microsome, human; format: in vitro ADME; details: liver microsomes; human liver microsome 0.1 mg/mL, compound 1 μM, NADPH 2 mM
Description: (§1) Then two parallel samples were prepared. After a 10 minutes preincubation at 37° C., 15 μL of NADPH solution (8 mM) was added according to the point-in-time. The final concentration of the text compound was 1 μM, the concentration of liver microsome was 0.1 mg/mL, the final concentration of NADPH was 2 mM. The incubations were last for 0, 15, 30, 60 min respectively, and then 150 μL of acetonitrile (include interior label) was added to the mixture system. After dilution with acetonitrile, the samples were centrifuged for 5 minutes in 4000 rpm. The supernatant liquid was collected for LC-MS/MS analysis.

[2] = Stability in liver microsome, monkey; format: in vitro ADME; details: liver microsomes; monkey liver microsome 0.1 mg/mL, compound 1 μM, NADPH 2 mM
Description: as §1

[3] = PK of test compounds in beagle; format: in vivo, beagle dog; details: for Cmax / Tmax / clearance / half-life / AUC(0-inf) / AUC(0-t) / Vd: dog, plasma; for AUC(0-inf): AUC in 0 hour to infinite time; for Vd: read-out: Vss; for F: absolute bioavailability
Description: The test compounds were administrated to beagle dog by gavage in dose of 2.5 mg/kg or 5 mg/kg, or by intravenous injection in dose of 1 mg/kg or 2 mg/kg. Blood sample was collected at 0.083, 0.25, 0.5, 1, 2, 4, 6, 8 and 24 hours from vein after administration into anticoagulation tubes with EDTA-K2. The test compounds were extracted from plasma samples and chromatographed on a tandem mass spectrometer. Quantitation was performed using multiple reaction monitoring (MRM). Pharmacokinetic parameters were calculated using WinNonlin 6.3 software with non compartment model.

[4] = Stability in liver microsome, dog; format: in vitro ADME; details: liver microsomes; dog liver microsome 0.1 mg/mL, compound 1 μM, NADPH 2 mM
Description: as §1

[5] = tested on: HBV; test: In-vitro anti-HBV activity in stable HBV-producing cell line (HepG2.2.15), HBV DNA by qPCR; format: cell-based; details: Hepatitis B virus
Description: HBV DNA contents in cell culture fluid were detected by the qPCR-based assay and 50% effective concentration (EC50) values of the compounds against HBV were calculated. Specific procedures are as follows:
HepG2.2.15 cells were seeded into each well of 96-well plates, 40,000 cells per well. Cells were treated with cell culture medium containing compounds with different concentrations for 24 hours after cell seeding. The final concentration of each compound was 16.4 μM in each well and each compound was diluted to desired concentration using 3-fold gradient dilution protocol, 9 diluted points in duplicate. The culture mediums containing the compounds were refreshed on day 4 post cell seeding. Culture media were collected from the HepG2.2.15 plates on day 7 post cell seeding followed by HBV DNA extraction.
HBV DNA extraction: The HBV DNA extraction was performed using QIAamp 96 DNA Blood Kit (QIAGEN 51161).
PCR for quantification: PCR mix was prepared according to PCR system. PCR mix was dispensed to 96-well optical reaction plates (special for quantification). The standard diluted proportionally was added. Then the sample was added; The plates were sealed with optical adhesive film; PCR system was performed according to programs.
Percentage of HBV inhibition of DNA replication by compound was calculated using the following equation: % Inh.=[1-HBV DNA quantity of sample/HBV DNA quantity of DMSO control]×100.
Calculating EC50 value of compounds to HBV replication: the EC50 values were calculated based on “four-parameter logistic equation” and using GraphPad Prism 5 analysis software.

[6] = Stability in liver microsome, mouse; format: in vitro ADME; details: liver microsomes; mouse liver microsome 0.1 mg/mL, compound 1 μM, NADPH 2 mM
Description: as §1

[7] = iv, 1 mg/kg, iv, 1 mg/kg, AUC in 0-24 hours, read-out: AUClast
[8] = 168 h, HepG2.2.15 cells, HBV DNA in culture fluid, day 7, top concentration 16.4 μM
[9] = po, 2.5 mg/kg, po, 2.5 mg/kg value multiplied by 2, read-out: AUClast ×2 (calculated by dosage)
[10] = po, 2.5 mg/kg, po, 2.5 mg/kg, AUC in 0-24 hours, read-out: AUClast

SMILES | CLint scaled at 1 μM [1] [mL/min/kg] | half-life at 1 μM [1] [h] | CLint scaled at 1 μM [2] [mL/min/kg] | half-life at 1 μM [2] [h] | Cmax ([3]; iv, 1 mg/kg) [ng/mL] | Tmax ([3]; iv, 1 mg/kg) [h] | clearance ([3]; iv, 1 mg/kg) [mL/min/kg] | half-life ([3]; iv, 1 mg/kg) [h] | AUC(0-inf) ([3]; iv, 1 mg/kg) [ng·h/mL] | AUC(0-t) [3, 7] [ng·h/mL] | Vd ([3]; iv, 1 mg/kg) [L/kg] | CLint scaled at 1 μM [4] [mL/min/kg] | half-life at 1 μM [4] [h] | pEC50 [5, 8] | CLint scaled at 1 μM [6] [mL/min/kg] | half-life at 1 μM [6] [h] | Cmax ([3]; po, 2.5 mg/kg) [ng/mL] | Tmax ([3]; po, 2.5 mg/kg) [h] | half-life ([3]; po, 2.5 mg/kg) [h] | AUC(0-inf) ([3]; po, 2.5 mg/kg) [ng·h/mL] | further results
CCOC(=O)C1=C(CN2CCO[C@H](CCC(=O)O)C2)NC(c2nccs2)=N[C@H]1c1ccc(F)cc1Br [Example 2, 3-((R)-4-(((R)-6-(2-Bromo-4-fluorophenyl)-5-(ethoxycarbonyl)-2-(thiazol-2-yl)-3,6-dihydropyrimidin-4-yl)methyl)morpholin-2-yl)propanoic acid] | 17.5 | 1.66 | 107 | 0.314 | 2050 | 0.083 | 1.93 | 5.71 | 8700 | 8270 | 0.756 | 14.3 | 4.02 | 7.46 | 385 | 0.236 |  |  |  |  | Cmax ([3]; po, 5 mg/kg): 6330 ng/mL; Tmax ([3]; po, 5 mg/kg): 1.33 h; half-life ([3]; po, 5 mg/kg): 5.1 h; AUC(0-inf) ([3]; po, 5 mg/kg): 49600 ng·h/mL; AUC(0-t) ([3]; po, 5 mg/kg, po, 5 mg/kg, AUC in 0-24 hours, read-out: AUClast): 47900 ng·h/mL; F ([3]; po, 5 mg/kg): 114.1%
CCOC(=O)C1=C(CN2CCO[C@H](CCC(=O)O)C2)NC(c2nccs2)=N[C@H]1c1ccc(F)cc1Cl [Example 9, 3-((R)-4-(((R)-6-(2-Chloro-4-fluorophenyl)-5-(ethoxycarbonyl)-2-(thiazol-2-yl)-3,6-dihydropyrimidin-4-yl)methyl)morpholin-2-yl)propanoic acid] | 11.4 | 2.53 | 75.6 | 0.447 | 2570 | 0.083 | 1.51 | 6.59 | 11300 | 10600 | 0.63 | 19.4 | 2.96 | 7.32 | 281 | 0.324 | 4360 | 0.5 | 4.62 | 24800 | AUC(0-t) [3, 9]: 48600 ng·h/mL; AUC(0-t) [3, 10]: 24300 ng·h/mL; F ([3]; po, 2.5 mg/kg): 87.91%; pEC50 ([5]; HepG2.2.15, isomers of compound of formular (II)): 7.32
COC(=O)C1=C(CN2CCO[C@H](CCC(=O)O)C2)NC(c2nccs2)=N[C@H]1c1ccc(F)cc1Cl [Example 10, 3-((R)-4-(((R)-6-(2-Chloro-4-fluorophenyl)-5-(methoxycarbonyl)-2-(thiazol-2-yl)-3,6-dihydropyrimidin-4-yl)methyl)morpholin-2-yl)propanoic acid] | 3.72 | 7.78 | 15.4 | 2.19 | 2430 | 0.083 | 1.74 | 5.16 | 9710 | 9400 | 0.62 | 6.13 | 9.39 | 7.35 | 57.7 | 1.58 | 4560 | 0.833 | 4.57 | 28000 | AUC(0-t) [3, 9]: 54000 ng·h/mL; AUC(0-t) [3, 10]: 27400 ng·h/mL; F ([3]; po, 2.5 mg/kg): 115%
COC(=O)C1=C(CN2CCO[C@H](CCC(=O)O)C2)NC(c2nccs2)=N[C@H]1c1ccc(F)cc1Br [Example 11, 3-((R)-4-(((R)-6-(2-Bromo-4-fluorophenyl)-5-(methoxycarbonyl)-2-(thiazol-2-yl)-3,6-dihydropyrimidin-4-yl)methyl)morpholin-2-yl)propanoic acid] | 6.93 | 4.18 | 14.4 | 2.34 | 3400 | 0.139 | 1.59 | 4.99 | 10900 | 10500 | 0.545 | 10.1 | 5.72 | 7.46 | 86.3 | 1.05 | 4310 | 0.75 | 4.92 | 24400 | AUC(0-t) [3, 9]: 47400 ng·h/mL; AUC(0-t) [3, 10]: 23700 ng·h/mL; F ([3]; po, 2.5 mg/kg): 89.66%
CCOC(=O)C1=C(CN2CCO[C@H](CCC(=O)O)C2)NC(c2nccs2)=N[C@H]1c1ccc(Cl)cc1Cl [Example 12, 3-((R)-4-(((R)-6-(2,4-dichlorophenyl)-5-(ethoxycarbonyl)-2-(thiazol-2-yl)-3,6-dihydropyrimidin-4-yl)methyl)morpholin-2-yl)propanoic acid] | 18.6 | 1.56 | 122 | 0.277 | 2230 | 0.083 | 2.12 | 6.2 | 7970 | 7570 | 0.832 | 17.5 | 3.28 | 7.59 | 604 | 0.15 | 2660 | 0.5 | 9.07 | 16800 | AUC(0-t) [3, 9]: 30000 ng·h/mL; AUC(0-t) [3, 10]: 15000 ng·h/mL; F ([3]; po, 2.5 mg/kg): 84.48%
